Data set [1] can be described thus: Distribution of sugar-modified AVP in organs (Test 1). Type of data set: in vivo, male SD rats. The note with it: rats, i.v. 1 nmol/kg; for renal selectivity: 5 min after administration, concentration in organs and organ clearance as index (Figs. 1 and 2). On the procedure: (§1) The organ clearance was determined by the following equation.
The organ clearance under the above experimental conditions is considered as a measure of the speed at which the compound is incorporated into the organs. The kidney is an organ which functions to perform glomerular filtration for the production of urine. The renal clearance of low-molecular weight compounds, which are likely to undergo glomerular filtration, is generally larger than the clearance for other organs. Further, under the above experimental conditions, it was estimated from the results on ^14C-labeled inulin that the incorporation of about 0.6 ml/min/g was carried out by glomerular filtration. Larger values indicate the incorporation of drugs into the kidney through blood vessels in addition to the glomerular filtration.

Data set [2] in a line: Renal selectivity (organ distribution) of thioglucoside-modified products (Test 6). As for the experimental part: as §1
Organ distribution was studied on Glc-S-C8 and, in addition, thioglucoside modification products of AVP, tryptamine, NBD as a fluorescent dye, doxorubicin as an anticancer agent and the like. Glc-S-C8 (the labeled product was prepared by catalytic exchange with ^3H gas; the specific activity 40.7 GBq/mmol), AVP derivatives, and tryptamine derivatives were converted to ^3H-labeled product and then studied on organ selectivity in the same manner as in Test 1. For the NBD derivatives, an experiment on distribution was carried out under conditions of dose 10 nmol/kg and 3 min. The vital sample was deproteinized with acetonitrile, subjected to separation by reversed phase liquid chromatography, and then quantitatively determined by fluorescence detection. DXR and derivatives thereof were administered at a dose of 50 nmol/kg, and, 3 min after the administration, the distribution was detected in the same manner as used for the NBD derivatives.

A short description of data set [3]: Autoradiography of sugar-modified AVPs in the kidney (Test 2). Particulars: rats, 5 min after administration, compared with Gal-C8-O-AVP and AVP. In kind it is in vivo. As for the experimental part: Sugar-modified AVPs were administered to rats. Five min after the administration, accumulation sites in the kidney were examined by autoradiography.
For data set [4] the following is noted: rat, in vivo.
A short description of data set [5]: Renal selectivity of modified anti-inflammatory steroid, part 1: total radioactivity in organs (Test 7). Particulars: rats, i.v. 10 nmol/kg, 5 min.
Data set [6] can be described thus: Pharmacokinetic test of rats (Glc-S-C5-Ala-DEX) (Test 10 (1)). Type of data set: in vivo. Particulars: male, rat, iv, Group B, i.v. 100 nmol/kg, n = 3, average ± SD. The text has this: For both the groups, the dose was 100 nmol/kg.
Plasma was fractionated from the collected blood according to the conventional method. Further, the kidney and the liver were extracted. The plasma was deprotenized, and the organs were homogenized and deprotenized, followed by separation by reversed phase liquid chromatography. Thereafter, Glc-S-C5-Ala-DEX and dexamethasone were detected and quantitatively determined by UV detector.

Setting [7] is: rats, ^3H-labeled product, same manner as Test 1 (i.v. 1 nmol/kg, 5 min).

Like-named read-outs stand apart in the source and are kept apart here.

Regarding `N=C(N)NCCC[C@H](NC(=O)[C@@H]1CCCN1C(=O)[C@@H]1CSSC[C@H](NC(=O)CCCCCCCCO[C@H]2C[C@@H](O)[C@H](O)[C@@H](CO)O2)C(=O)N[C@@H](Cc2ccc(O)cc2)C(=O)N[C@@H](Cc2ccccc2)C(=O)N[C@@H](CCC(N)=O)C(=O)N[C@@H](CC(N)=O)C(=O)N1)C(=O)NCC(N)=O` [2dGlc-O-C8-AVP], in data set [1], the renal selectivity result is listed as “high renal selectivity”.
For `COc1cccc2c1C(=O)c1c(O)c3c(c(O)c1C2=O)C[C@@](O)(C(=O)CO)C[C@@H]3O[C@H]1C[C@H](N)[C@H](O)[C@H](C)O1` [DXR, doxorubicin], the Renal clearance in data set [2] (rats, DXR and derivatives: dose 50 nmol/kg, 3 min after administration) stood at 0.54 ± 0.10 mL/min/g.
Regarding `N=C(N)NCCC[C@H](NC(=O)[C@@H]1CCCN1C(=O)[C@@H]1CSSC[C@H](NC(=O)CCCCCCCCO[C@@H]2O[C@H](CO)[C@H](O)[C@H](O)[C@H]2O)C(=O)N[C@@H](Cc2ccc(O)cc2)C(=O)N[C@@H](Cc2ccccc2)C(=O)N[C@@H](CCC(N)=O)C(=O)N[C@@H](CC(N)=O)C(=O)N1)C(=O)NCC(N)=O` [Gal-O-C8-AVP], the renal selectivity result in data set [1] is given as “the renal selectivity was the same as that for AVP”.
`N=C(N)NCCC[C@H](NC(=O)[C@@H]1CCCN1C(=O)[C@@H]1CSSC[C@H](NC(=O)CCCCCCCCO[C@@H]2O[C@H](CO)[C@@H](O)[C@H](O)[C@H]2O)C(=O)N[C@@H](Cc2ccc(O)cc2)C(=O)N[C@@H](Cc2ccccc2)C(=O)N[C@@H](CCC(N)=O)C(=O)N[C@@H](CC(N)=O)C(=O)N1)C(=O)NCC(N)=O` [Glc-O-C8-AVP] displayed a Renal clearance in data set [1] (5 min, Fig. 2) of 2.43 mL/min/g. The renal selectivity result in data set [1] was “high renal selectivity”. For the same compound, in data set [3], the “concentration in cortical part and in the outer layer of the outer band in the medulla” value was “clearly higher”; the “concentration in the medulla” value is reported as “lower”.
For `CC[C@H](C)[C@@H]1NC(=O)[C@H](Cc2ccc(O)cc2)NC(=O)[C@@H](NC(=O)CCCCCCCCO[C@@H]2O[C@H](CO)[C@@H](O)[C@H](O)[C@H]2O)CSSC[C@@H](C(=O)N2CCC[C@H]2C(=O)N[C@@H](CC(C)C)C(=O)NCC(N)=O)NC(=O)[C@H](CC(N)=O)NC(=O)[C@H](CCC(N)=O)NC1=O` [Glc-O-C8-Oxy], in data set [4], the Hepatic clearance was 0.08 ± 0.00 mL/min/g and the Renal clearance worked out at 1.05 ± 0.05 mL/min/g.
In the case of `COc1cccc2c1C(=O)c1c(O)c3c(c(O)c1C2=O)C[C@@](O)(C(=O)COC(=O)CCCCCCCCS[C@@H]1O[C@H](CO)[C@@H](O)[C@H](O)[C@H]1O)C[C@@H]3O[C@H]1C[C@H](N)[C@H](O)[C@H](C)O1` [Glc-S-C8-COO-DXR, 14-[9-(1-thio-β-D-glucopyranosyl)nonanoyl]doxorubicin], the “formation of free DXR in plasma and kidney” value in data set [2] (rat, in vivo) is on record as “could be confirmed”.
For the compound `N=C(N)NCCC[C@H](NC(=O)[C@@H]1CCCN1C(=O)[C@@H]1CSSC[C@H](NC(=O)CCCCCCCCO[C@H]2O[C@H](CO)[C@@H](O)[C@H](O)[C@@H]2O)C(=O)N[C@@H](Cc2ccc(O)cc2)C(=O)N[C@@H](Cc2ccccc2)C(=O)N[C@@H](CCC(N)=O)C(=O)N[C@@H](CC(N)=O)C(=O)N1)C(=O)NCC(N)=O` [Man(α)-O-C8-AVP], in data set [1], the renal selectivity entry is recorded as “the renal selectivity was the same as that for AVP”.
On the same count and under the same terms, under `N=C(N)NCCC[C@H](NC(=O)[C@@H]1CCCN1C(=O)[C@@H]1CSSC[C@H](NC(=O)CCCCCCCCO[C@@H]2O[C@H](CO)[C@@H](O)[C@H](O)[C@@H]2O)C(=O)N[C@@H](Cc2ccc(O)cc2)C(=O)N[C@@H](Cc2ccccc2)C(=O)N[C@@H](CCC(N)=O)C(=O)N[C@@H](CC(N)=O)C(=O)N1)C(=O)NCC(N)=O` [Man-O-C8-AVP] stands “high renal selectivity”.
On to `CC[C@H](C)[C@@H]1NC(=O)[C@H](Cc2ccc(O)cc2)NC(=O)[C@@H](NC(=O)CCCCCCCCO[C@@H]2O[C@H](CO)[C@@H](O)[C@H](O)[C@@H]2O)CSSC[C@@H](C(=O)N2CCC[C@H]2C(=O)N[C@@H](CC(C)C)C(=O)NCC(N)=O)NC(=O)[C@H](CC(N)=O)NC(=O)[C@H](CCC(N)=O)NC1=O` [Man-O-C8-Oxy], for which, in data set [4], the Hepatic clearance turned out to be 0.14 ± 0.02 mL/min/g and the Renal clearance was determined as 3.59 ± 0.17 mL/min/g.
For the compound `NCCc1c[nH]c2ccccc12` [Tryptamine], in data set [2] (setting [7]), the Conc. in kidney was 3.5±0.3 % of dose/g and the Renal clearance came to 0.63 ± 0.07 mL/min/g.
Consider `C[C@@H]1C[C@H]2[C@@H]3CCC4=CC(=O)C=C[C@]4(C)[C@@]3(F)[C@@H](O)C[C@]2(C)[C@@]1(O)C(=O)CO` [dexamethasone], for which, in data set [5], the “Total conc. of dexamethasone in organ: Adrenal” value is given as 24.65±0.95 pmol/g tissue, the “Total conc. of dexamethasone in organ: Blood” value was 7.61±0.49 pmol/g tissue, the “Total conc. of dexamethasone in organ: Fat” value was 2.74±1.12 pmol/g tissue and the “Total conc. of dexamethasone in organ: Heart” value was 14.86±1.05 pmol/g tissue. Besides, in data set [5], the “Total conc. of dexamethasone in organ: Kidney” value came out at 22.36±0.80 pmol/g tissue, the “Total conc. of dexamethasone in organ: Liver” value was found to be 65.90±12.61 pmol/g tissue, the “Total conc. of dexamethasone in organ: Lung” value stood at 16.49±1.57 pmol/g tissue and the “Total conc. of dexamethasone in organ: Spleen” value came out at 11.04±0.25 pmol/g tissue. The concentration at 5 min in data set [6] (kidney, read-out: Concentration of dexamethasone: Kidney) was 203 ± 39.3 nM. Besides, the concentration at 5 min in data set [6] (liver, read-out: Concentration of dexamethasone: Liver) came out at 930 ± 119 nM. In addition, the concentration at 5 min in data set [6] (plasma, read-out: Concentration of dexamethasone: Plasma) was 116 ± 13.6 nM.
